Each structure is given as a SMILES string.

The source of these data is article PMC8747035, “Design, Synthesis, and Biological Evaluation of 5,6,7,8-Tetrahydrobenzo[4,5]thieno[2,3-d]pyrimidines as Microtubule Targeting Agents” (Molecules, 2022).

The subject of one assay is HL-60(TB). Put plainly: NCI-60 growth inhibition, HL-60(TB). Particulars: Homo sapiens, Leukemia. It counts as cell-based. An excerpt: (§1) Compound 4 had better potency than the lead compound 1 in 50 cancer cell lines. (better by 5 to 6-fold in leukemia, 2 to 17-fold in NSCLC, 2 to 6-fold in colon cancer, 2 to 5-fold in CNS cancer, 2 to 25-fold in melanoma, 2 to 5-fold in ovarian cancer, 2 to 9-fold in renal cancer, 2 to 5-fold in prostate cancer, and 2 to 6-fold in breast cancer compared to lead compound 1).

The subject of the next assay is NCI-H322M. Put plainly: NCI-60 growth inhibition, NCI-H322M. Format: cell-based. Particulars: Homo sapiens, NSCLC.
Source text: as §1

For a further assay, the system named is SN12C. Put plainly: NCI-60 growth inhibition, SN12C. Particulars: Homo sapiens, Renal Cancer. Format: cell-based.
Source text: as §1

In a further assay the test system is NCI-H522. Put plainly: NCI-60 growth inhibition, NCI-H522. Format: cell-based. The note with it: Homo sapiens, NSCLC.
Source text: as §1

A further assay has as its system NCI-H226. Put plainly: NCI-60 growth inhibition, NCI-H226. Format: cell-based. Particulars: Homo sapiens, NSCLC.
Source text: as §1

In the next assay the test system is HeLa WTβIII cells. Briefly: SRB assay in βIII-tubulin expressing HeLa WTβIII cells. The note with it: Homo sapiens, read-out: IC50 ± SD in HeLa WTβ3. It counts as cell-based. As for the experimental part:
Compounds 4–8, 10, 12, and 13 were evaluated for their abilities to overcome βIII-tubulin mediated drug resistance using an isogenic HeLa cell line pair (Table 4). […] The Rr values (Table 4) were calculated by dividing the IC50 of the βIII-tubulin expressing line by the IC50 obtained in the parental HeLa cells.
The antiproliferative and cytotoxic effects of the compounds in cancer cells were evaluated using the SRB assay as previously described. MDA-MB-435 cells were obtained from the Lombardi Cancer Center of Georgetown University (Washington, DC, USA). SK-OV-3 and HeLa cells were purchased from ATCC. Details about the generation of the SK-OV-3 MDR1-M6/6 and HeLa WTβIII cells were described previously. The IC50 values represent an average of three independent experiments, each conducted using triplicate points.
HeLa, A-10, SK-OV-3, and SK-OV-3 MDR1-M6/6 cells were grown in Basal Medium Eagle (Sigma-Aldrich, St. Louis, MO, USA) supplemented with 10% FBS (Hyclone, GE Life Sciences, Logan, UT, USA) 1% GlutaMAX (Gibco, Life Technologies, Waltham, MA, USA) and 50 µg/mL gentamycin (Life Technologies, USA). HeLa WTβIII cells were grown in Dulbecco’s Modified Eagle Medium (Life Technologies) supplemented with 10% FBS and 50 µg/mL gentamycin. MDA-MB-435 cells were maintained in Improved Minimum Essential Medium (Life Technologies) supplemented with 10% FBS and 25 µg/mL gentamycin. All cells were grown at 37 °C in a humidified environment with 5% CO2.

For the next assay, the system named is SF-268. Put plainly: NCI-60 growth inhibition, SF-268. The note with it: Homo sapiens, CNS Cancer. Format: cell-based.
Source text: as §1

For a further assay, the system named is OVCAR-4. Put plainly: NCI-60 growth inhibition, OVCAR-4. It counts as cell-based. The note with it: Homo sapiens, Ovarian Cancer.
Source text: as §1

The subject of a further assay is UO-31. Put plainly: NCI-60 growth inhibition, UO-31. Format: cell-based. Particulars: Homo sapiens, Renal Cancer.
Source text: as §1

A further assay concerns MCF7. Put plainly: NCI-60 growth inhibition, MCF7. Format: cell-based. Particulars: Homo sapiens, Breast Cancer.
Source text: as §1

A further assay relates to HT29. Briefly: NCI-60 growth inhibition, HT29. It counts as cell-based. The note with it: Homo sapiens, HT-29, Colon Cancer.
Source text: as §1

Another assay relates to COLO 205. Briefly: NCI-60 growth inhibition, COLO 205. Format: cell-based. Particulars: Homo sapiens, Colon Cancer.
Source text: as §1

Another assay has as its system LOX IMVI. Put plainly: NCI-60 growth inhibition, LOX IMVI. It counts as cell-based. The note with it: Homo sapiens, Melanoma.
Source text: as §1

The next assay relates to MDA-MB-435. Put plainly: NCI-60 growth inhibition, MDA-MB-435. It counts as cell-based. The note with it: Homo sapiens, Melanoma.
Source text: as §1

For the next assay, the system named is NCI-H23. Briefly: NCI-60 growth inhibition, NCI-H23. It counts as cell-based. The note with it: Homo sapiens, NSCLC.
Source text: as §1

In another assay the test system is OVCAR-8. Put plainly: NCI-60 growth inhibition, OVCAR-8. It counts as cell-based. Particulars: Homo sapiens, Ovarian Cancer.
Source text: as §1

Another assay has as its system A-10 cells. Briefly: Cellular microtubule depolymerization in A-10 cells (immunofluorescence). It counts as cell-based. The note with it: Rattus norvegicus, A10; 18 h, loss of 50% of interphase microtubules. As for the experimental part: We investigated the microtubule depolymerization and the antiproliferative activities of compounds 4–14 (Table 2). […] We next evaluated the importance of the 4′-OMe group of compound 4 by replacing it with an isosteric 4′-SMe (5). […] Clearly, this further substantiated the importance of an S in the scaffold over an NH.
The effects of the compounds on cellular microtubules were evaluated in A-10 cells using indirect immunofluorescence microscopy. These cells were obtained from the American Type Culture Collection (ATCC) (Manassas, VA, USA). Cells were treated with the compounds of interest for 18 h, and the cells fixed with cold MeOH and microtubule structures were visualized using a β-tubulin antibody (Sigma-Aldrich, St. Louis, MO, USA). The concentration that caused loss of 50% of the interphase microtubules was defined as the EC50 and calculated as previously described. These values represent an average of at least three independent experiments.

The next assay concerns tubulin. Briefly: Inhibition of [3H]colchicine binding to tubulin. Details: species or system Bovine. The note with it: compound at 5 μM, 5.0 µM [3H]colchicine, 1.0 µM tubulin. On the procedure: Bovine brain tubulin was purified as described previously. The tubulin assembly assay has been described in detail. Briefly, 1.0 mg/mL of tubulin (10 µM) was preincubated for 15 min at 30 °C in 0.8 M monosodium glutamate (pH of 2 M stock solution adjusted to 6.6 with HCl), varying compound concentrations and 4% (v/v) DMSO as compound solvent. After the preincubation, the reaction mixtures were placed on ice and 0.4 mM GTP was added. The reaction mixtures were transferred to cuvettes at 0 °C in a recording spectrophotometer equipped with an electronic temperature controller. After baselines were established, the temperature was elevated over about 30 s to 30 °C, and changes in turbidity were monitored at 350 nm for 20 min. The compound concentration that caused a 50% reduction in increase in turbidity, interpolated from the values obtained with defined compound concentrations, was defined as the IC50 value. The assay to measure inhibition of [^3H]colchicine binding was described in detail previously. Briefly, 0.1 mg/mL (1.0 µM) tubulin was incubated at 37 °C with 5.0 µM [3H]colchicine and potential inhibitors at 5.0 µM. […] The [^3H]colchicine was a product of PerkinElmer, USA.

The subject of another assay is SK-MEL-28. Briefly: NCI-60 growth inhibition, SK-MEL-28. It counts as cell-based. Particulars: Homo sapiens, Melanoma.
Source text: as §1

Another assay has as its system NCI-H460. Put plainly: NCI-60 growth inhibition, NCI-H460. Format: cell-based. The note with it: Homo sapiens, NSCLC.
Source text: as §1

A further assay relates to 786-0. Briefly: NCI-60 growth inhibition, 786-0. It counts as cell-based. Particulars: Homo sapiens, Renal Cancer.
Source text: as §1

Another assay deals with TK-10. Put plainly: NCI-60 growth inhibition, TK-10. It counts as cell-based. The note with it: Homo sapiens, Renal Cancer.
Source text: as §1

In a further assay the test system is M14. Put plainly: NCI-60 growth inhibition, M14. It counts as cell-based. Particulars: Homo sapiens, Melanoma.
Source text: as §1

Another assay has as its system SK-MEL-5. Put plainly: NCI-60 growth inhibition, SK-MEL-5. It counts as cell-based. The note with it: Homo sapiens, Melanoma.
Source text: as §1

On to `COc1ccc(N(C)c2nc(N)nc3sc4c(c23)CCCC4)cc1` [Compound 4, N4-(4-methoxyphenyl)-N4-methyl-5,6,7,8-tetrahydrobenzo[4,5]thieno[2,3-d]pyrimidine-2,4-diamine], for which the GI50 with HL-60(TB) worked out at 4.38 nM; in the assay with NCI-H322M, 11.6 nM; with SN12C it was 14.4 nM; in the assay with NCI-H522, 6.87 nM; in the assay on NCI-H226, 17.5 nM; in the assay on SF-268, 15.9 nM. For the same molecule, the GI50 amounted to 9.98 nM in the assay with OVCAR-4; 11.8 nM in the assay on UO-31; 8.01 nM in the assay with MCF7; 6.21 nM in the assay with HT29; 10.8 nM in the assay on COLO 205; 10.1 nM in the assay on LOX IMVI. Moreover, the GI50 with MDA-MB-435 was found to be 4.89 nM; in the assay on NCI-H23, 11.3 nM; with OVCAR-8, 18.1 nM; with SK-MEL-28, 12.1 nM; in the assay with NCI-H460, 10.4 nM; with 786-0, 12.4 nM. In addition, the values for the GI50 with TK-10, in the assay with M14 and with SK-MEL-5 were 14.2 nM, 4.32 nM and 10.8 nM, respectively. For the same molecule, the IC50 in the assay with HeLa WTβIII cells was found to be 10.6 ± 1.8 nM. The EC50 in the assay on A-10 cells turned out to be 19 nM. In addition, in the assay on tubulin, the “Inhibition of Colchicine Binding (% inhibition ± SD)” value is 99.0 ± 1.0%.
